In patent US20260042754A1, “Substituted Bicyclic Heteroaryl Sulfonamide Derivatives for the Treatment of Cancer” (NODUS ONCOLOGY LIMITED, priority 2022, published 2026):
Like-named read-outs stand apart in the source and are kept apart here.

What was measured:
[1] = target: Recombinant His-tagged human PARG protein (Homo sapiens (Human), UniProt Q86W56); assay: PARG enzymatic assay (TFMU-ADPr fluorescence); format: biochemical; details: 1 nM enzyme, 200 μM TFMU-ADPr, read after 30 minutes
Description: Inhibition of PARG enzymatic activity by compounds was determined as follows: Recombinant His-tagged human PARG protein expressed in Sf21 insect cells (Adipogen AG, #40T-0022) was aliquoted and stored at −80° C. until use. The artificial enzyme substrate 4-(trifluoromethyl)umbelliferone (TFMU)-ADPr was prepared essentially as described (Drown B S et al, Cell Chemical Biology 2018) and stored at −20° C. as 10 mM stock solutions in DMSO (dimethyl sulfoxide) until use. For reactions, typical final concentration of the enzyme was 1 nM and of the TFMU-ADPr 200 μM. Reactions were carried out in black 384-well low volume round bottom assay plates (Corning, #4514) in a final volume of 10 μL. To this end, PARG was diluted to 1.67 nM in reaction buffer (50 mM K2HPO4, 50 mM KCl, 10 mM β-mercaptoethanol, pH 7.4) and 6 μL were dispensed per assay well using a multichannel pipette. Then compound was dispensed into each well using an Echo dispenser (BeckmanCoulter) to yield the pre-specified final concentration of the range of concentrations to be tested (typically 8-point serial concentrations ranging from either from 0.01 to 10 μM, or from 0.001 to 1 μM, or from 0.0001 to 0.1 μM), and being volume-corrected with 100% DMSO (0.5% final DMSO concentration in reaction mixtures). Plates were mixed, and after 15 minutes 4 μL TFMU-ADPr was added into each well using a multichannel pipette followed by brief mixing. Fluorescence intensity signals were then measured after 30 minutes on an EnVision microplate reader (PerkinElmer) using 380/10 nm and 535/25 nm filters for the excitation and emission, respectively (gain: 150). The assay window was set using DMSO control (top) and a control containing no PARG enzyme (bottom). Delta values were plotted as concentration-response curves fitted to a sigmoidal 4-parameter logistic model to calculate IC50 values (Scigilian Analyze).

[2] = target: human PARG (PARG-NanoLuc fusion in HEK293T cells) (Homo sapiens (Human), UniProt Q86W56); assay: PARG NanoBRET-based cellular target engagement assay; format: cell-based; details: HEK293T cells transfected with PARG-NanoLuc, NanoBRET probe 0.89 μM, 2 hours; read-out: PARG TE IC50
Description: PARG Nano-luciferase construct: The PARG-NanoLuc® fusion vector was generated by Promega, by inserting the full length human PARG cDNA sequence encoding the 976 amino acid protein (Gene ID: 8505, UniProt: Q86W56) into the pNLF1-C [CMV/Hygro] vector (C-terminal fusions with NanoLuc® enzyme).
PARG target engagement tracer synthesis: The NanoBRET tracer for PARG was prepared following a previously reported general tracer synthesis procedure.
PARG Probe Displacement Assay Using NanoBRET: HEK293T (DSMZ #ACC 635) cells transiently transfected with the PARG-NanoLuc fusion construct were resuspended in phenol red-free OptiMEM (Gibco #11058-021) to a concentration of 2.4×10^5 cells/mL. 9 μL per well were then added to a white 384-well low volume microplate (Greiner #784080) and incubated for 24 hours under standard growth conditions.
Then compound was dispensed into each well using an Echo dispenser (BeckmanCoulter) to yield the pre-specified final concentration of the range of concentrations to be tested (typically 8-point serial concentrations ranging from either from 0.01 to 10 μM, or from 0.001 to 1 μM, or from 0.0001 to 0.1 μM), and being volume-corrected with 100% DMSO (0.5% final DMSO concentration in reaction mixtures).
After mixing and an incubation at room temperature for 15 min 1 μl of the NanoBRET probe (at 0.89 μM final concentration) was added to the microplate using a multichannel pipette. The plate was mixed and incubated in a 5% CO2 environment at 37° C. for 2 hours, and then 5 μL per well of a solution consisting of a 1:31.25 dilution of Nano-Glo substrate (Promega) and a 1:500 dilution of NanoLuc extracellular inhibitor (Promega) in phenol red-free OptiMEM was added to each well followed by another mixing step. Filtered luminescence was measured on an EnVision plate reader (PerkinElmer) equipped with a 460 nm filter (donor) and a 645 nm filter (acceptor). BRET ratios were plotted as concentration-response curves fitted to a sigmoidal 4-parameter logistic model to calculate IC50 values (Scigilian Analyze).

[3] = tested on: NCI-H1650; assay: Modified cell proliferation assay (CellTiter-Glo), NCI-H1650; format: cell-based; details: modified protocol, 384-well, 300 cells per well, 120 h, highest concentration tested 30000 nM, read-out: NCI-H1650 GI50 (high PARG dependency)
Description: The cell proliferation assay protocol was modified and used for RMUG-S for Examples 12-44, and subsequently used to test Examples 1-44 in the NCI-H1650 cell line.
NCI-H1650 (ATCC, #CRL-5883) or RMUG-S were seeded on day 1 at 300 cells per well in a 384-well plate (Greiner, #781080) that assure assay linearity and optimal signal intensity in 25 μL of RPMI1640 media (Pan Biotech, #P04-22100) containing 10% FCS (Capricorn, #FBS-11A; Lot. CP22-5141) and 1% Glutamine (Pan Biotech, #P04-80100). After incubation for 24 h in humidified chambers at 37° C./5% CO2, compounds/DMSO were dispensed at different concentrations using an Echo 520 (Beckman Coulter). Cells were further incubated for 120 h at 37° C. and 5% CO2. Cells treated with the compound vehicle DMSO were used as negative controls and cells treated with 10 μM Staurosporine (LC Laboratories, #S-9300) served as positive controls.
At day 6 the CellTiter Glo Reagent was prepared according to the instructions of the kit (Promega Inc.): Reagent was mixed 1:1 with cell culture medium. Thereon, mixture and assay plates were equilibrated at room temperature for 20 min. Equal volumes of the reagent-medium-mixture were added to the volume of culture medium present in each well. The plates were mixed at […] for 2 minutes on an orbital shaker (Timix5, Edmund Buehler GmbH). The microplates were then incubated at room temperature for 10 minutes for stabilization of the luminescent signal. Following incubation, the luminescence was recorded on a Victor X5 microplate reader (Perkin Elmer) using a 200 ms integration time. The data was then analyzed with Excel using the XLFIT Plugin (dose response Fit 205) for determination of the concentration necessary for half-maximal inhibition (i.e. the inflection point of the fitted curve).
As quality control the Z′-factor was calculated from 16 positive and negative control values. Only assay results showing a Z′-factor≥0.5 were used for further analysis.

Recombinant His-tagged human PARG protein, sequence (Q86W56 whole entry): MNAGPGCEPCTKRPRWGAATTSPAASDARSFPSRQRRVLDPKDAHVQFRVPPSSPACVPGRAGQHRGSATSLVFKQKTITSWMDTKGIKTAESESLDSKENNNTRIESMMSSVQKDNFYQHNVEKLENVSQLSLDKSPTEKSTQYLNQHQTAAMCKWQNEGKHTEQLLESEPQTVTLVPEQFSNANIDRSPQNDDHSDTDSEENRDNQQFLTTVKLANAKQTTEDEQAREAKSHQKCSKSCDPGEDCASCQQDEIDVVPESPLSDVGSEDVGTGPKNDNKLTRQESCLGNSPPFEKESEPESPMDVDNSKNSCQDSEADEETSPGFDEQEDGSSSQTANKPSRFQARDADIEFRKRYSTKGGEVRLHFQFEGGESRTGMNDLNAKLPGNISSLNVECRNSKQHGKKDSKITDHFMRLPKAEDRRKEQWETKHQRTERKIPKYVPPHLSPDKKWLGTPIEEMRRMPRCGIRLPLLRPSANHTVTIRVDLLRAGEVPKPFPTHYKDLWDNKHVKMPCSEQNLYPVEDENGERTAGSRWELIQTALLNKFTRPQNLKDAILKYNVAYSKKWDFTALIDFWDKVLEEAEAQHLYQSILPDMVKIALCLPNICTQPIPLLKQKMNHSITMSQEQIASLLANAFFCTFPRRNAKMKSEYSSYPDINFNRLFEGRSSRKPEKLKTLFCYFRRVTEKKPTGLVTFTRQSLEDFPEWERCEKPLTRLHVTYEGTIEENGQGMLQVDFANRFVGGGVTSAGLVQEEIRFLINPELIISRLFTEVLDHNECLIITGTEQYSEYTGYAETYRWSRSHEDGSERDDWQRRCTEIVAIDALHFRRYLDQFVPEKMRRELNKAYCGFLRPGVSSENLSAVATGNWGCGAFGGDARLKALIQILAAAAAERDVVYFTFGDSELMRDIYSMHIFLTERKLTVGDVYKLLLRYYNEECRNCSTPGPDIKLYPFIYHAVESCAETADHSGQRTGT
human PARG (PARG-NanoLuc fusion in HEK293T cells), sequence (Q86W56 whole entry, the tested form may be a part): as the sequence (Q86W56 whole entry) above

Structure (SMILES) | IC50 [1] [nM] | IC50 [2] [nM] | GI50 ([3]; Homo sapiens, NCI-H1650) [nM] | GI50 [3] [nM]
CO/N=c1\[nH]c2ccc(S(=O)(=O)NC3(C)CC3)cc2c(=O)n1Cc1cnn(C(F)(F)F)c1 [Example 6, 2-methoxyimino-N-(1-methylcyclopropyl)-4-oxo-3-[[1-(trifluoromethyl)pyrazol-4-yl]methyl]-1H-quinazoline-6-sulfonamide] | 100 to 1000 | 100 to 1000 |  | 
CCO/N=c1\[nH]c2ccc(S(=O)(=O)NC3(C)CC3)cc2c(=O)n1Cc1cnn(C)c1 [Example 10, 2-ethoxyimino-N-(1-methylcyclopropyl)-3-[(1-methylpyrazol-4-yl)methyl]-4-oxo-1H-quinazoline-6-sulfonamide] | < 30 | 30 to 99 | 500 to 2000 | 
CC(C)O/N=c1\[nH]c2ccc(S(=O)(=O)NC3(C)CC3)cc2c(=O)n1Cc1cnn(C)c1 [Example 11, 2-isopropoxyimino-N-(1-methylcyclopropyl)-3-[(1-methylpyrazol-4-yl)methyl]-4-oxo-1H-quinazoline-6-sulfonamide] | < 30 | 30 to 99 |  | 
CO/N=c1\[nH]c2c(N3CCN(C(C)=O)[C@H](C)C3)cc(S(=O)(=O)NC3(C)CC3)cc2c(=O)n1Cc1cnn(C)c1 [Example 12, (2E)-2-methoxyimino-N-(1-methylcyclopropyl)-3-[(1-methylpyrazol-4-yl)methyl]-4-oxo-8-[(3R)-4-acetyl-3-methyl-piperazin-1-yl]-1H-quinazoline-6-sulfonamide] | < 30 | < 30 | < 500 | 
CO/N=c1\[nH]c2c(C3=C[C@@H](C)NCC3)cc(S(=O)(=O)NC3(C)CC3)cc2c(=O)n1Cc1cnn(C)c1 [Example 13, (R,E)-2-(methoxyimino)-8-(6-methyl-1,2,3,6-tetrahydropyridin-4-yl)-3-((1-methyl-1H-pyrazol-4-yl)methyl)-N-(1-methylcyclopropyl)-4-oxo-1,2,3,4-tetrahydroquinazoline-6-sulfonamide/(R,E)-2-(methoxyimino)-8-(2-methyl-1,2,3,6-tetrahydropyridin-4-yl)-3-((1-methyl-1H-pyrazol-4-yl)methyl)-N-(1-methylcyclopropyl)-4-oxo-1,2,3,4-tetrahydroquinazoline-6-sulfonamide] | < 30 | 30 to 99 |  | 500 to 2000
CO/N=c1\[nH]c2c(-c3ccc(C(=O)N(C)C)c(C)c3)cc(S(=O)(=O)NC3(C)CC3)cc2c(=O)n1Cc1cnn(C)c1 [Example 14, (E)-4-(2-(methoxyimino)-3-((1-methyl-1H-pyrazol-4-yl)methyl)-6-(N-(1-methylcyclopropyl)sulfamoyl)-4-oxo-1,2,3,4-tetrahydroquinazolin-8-yl)-N,N,2-trimethylbenzamide] | < 30 | < 30 | < 500 | 
CO/N=c1\[nH]c2c(-c3ccc(C4(O)CCC4=O)cc3)cc(S(=O)(=O)NC3(C)CC3)cc2c(=O)n1Cc1cnn(C)c1 (stereo not shown) [Example 22, (E)-8-(4-(1-hydroxy-2-oxocyclobutyl)phenyl)-2-(methoxyimino)-3-((1-methyl-1H-pyrazol-4-yl)methyl)-N-(1-methylcyclopropyl)-4-oxo-1,2,3,4-tetrahydroquinazoline-6-sulfonamide] | < 30 | 30 to 99 |  | 
CO/N=c1\[nH]c2c(N3CCN(C(=O)C4(C(F)(F)F)CC4)[C@H](C)C3)cc(S(=O)(=O)NC3(C)CC3)cc2c(=O)n1Cc1cnn(C)c1 [Example 32, (R,E)-2-(methoxyimino)-3-((1-methyl-1H-pyrazol-4-yl)methyl)-8-(3-methyl-4-(1-(trifluoromethyl)cyclopropane-1-carbonyl)piperazin-1-yl)-N-(1-methylcyclopropyl)-4-oxo-1,2,3,4-tetrahydroquinazoline-6-sulfonamide] |  |  | < 500 | 
CO/N=c1\[nH]c2c(N3CCN(C(=O)C(F)(F)F)[C@H](C)C3)cc(S(=O)(=O)NC3(C)CC3)cc2c(=O)n1Cc1cnn(C)c1 [Example 42, (R,E)-2-(methoxyimino)-3-((1-methyl-1H-pyrazol-4-yl)methyl)-8-(3-methyl-4-(2,2,2-trifluoroacetyl)piperazin-1-yl)-N-(1-methylcyclopropyl)-4-oxo-1,2,3,4-tetrahydroquinazoline-6-sulfonamide] | < 30 | < 30 |  | 

The next lines start with results.

IC50 [1] [nM] | IC50 [2] [nM] | GI50 ([3]; Homo sapiens, NCI-H1650) [nM] | Structure (SMILES) | GI50 [3] [nM]
< 30 | < 30 |  | CO/N=c1\[nH]c2c(N3CCN(C(=O)C(F)(F)C4(O)CCC4)[C@H](C)C3)cc(S(=O)(=O)NC3(C)CC3)cc2c(=O)n1Cc1cnn(C)c1 (single isomer, unassigned) [Example 43] | 
< 30 | < 30 |  | CO/N=c1\[nH]c2c(N3CCN(C(=O)N(C)C4CC4)[C@H](C)C3)cc(S(=O)(=O)NC3(C)CC3)cc2c(=O)n1Cc1cnn(C)c1 (single isomer, unassigned) [Example 44] | 
< 30 | 30 to 99 | > 2000 | CO/N=c1\[nH]c2c(Cl)cc(S(=O)(=O)NC3(C)CC3)cc2c(=O)n1Cc1cnn(C)c1 [Example 4, 8-chloro-2-methoxyimino-N-(1-methylcyclopropyl)-3-[(1-methylpyrazol-4-yl)methyl]-4-oxo-1H-quinazoline-6-sulfonamide] | 
< 30 | 30 to 99 | > 2000 | CON=c1[nH]c2ccc(S(=O)(=O)NC3(C#N)CC3)cc2c(=O)n1Cc1cnn(C)c1 [Example 9, N-(1-cyanocyclopropyl)-2-methoxyimino-3-[(1-methylpyrazol-4-yl)methyl]-4-oxo-1H-quinazoline-6-sulfonamide] | 
